Results published in ChEMBL document CHEMBL1201862, “PubChem BioAssay data set” (2004).
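These data come from cells grown in 96-well plates and exposed to compound for 48 hours at five concentrations. GI50 marks 50% less growth.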 Calls of active or inactive are those of the source. Rule as the data show it: active = GI50 up to about 1.1 µM and inactive = higher.

Key:
Assay in all cases: NCI-60 cell line screen, 48 h
OVCAR-3 = test system: OVCAR-3
NCI-H23 = test system: NCI-H23
NCI-H460 = test system: NCI-H460
A498 = test system: A498
TK-10 = test system: TK-10
BT-549 = test system: BT-549
OVCAR-5 = test system: OVCAR-5
MCF7 = test system: MCF7
MOLT-4 = test system: MOLT-4
UO-31 = test system: UO-31
COLO 205 = test system: COLO 205
SK-MEL-2 = test system: SK-MEL-2
SK-MEL-28 = test system: SK-MEL-28
PC-3 = test system: PC-3
HOP-92 = test system: HOP-92
CCRF-CEM = test system: CCRF-CEM
SF-268 = test system: SF-268
UACC-62 = test system: UACC-62
ACHN = test system: ACHN
K562 = test system: K562
EKVX = test system: EKVX
HCT-116 = test system: HCT-116
UACC-257 = test system: UACC-257
SF-295 = test system: SF-295
786-0 = test system: 786-0
NCI/ADR-RES = test system: NCI/ADR-RES
SF-539 = test system: SF-539
A549 = test system: A549
OVCAR-4 = test system: OVCAR-4
SNB-75 = test system: SNB-75
HOP-62 = test system: HOP-62
CAKI-1 = test system: CAKI-1
DU-145 = test system: DU-145
MDA-MB-435 = test system: MDA-MB-435
SK-MEL-5 = test system: SK-MEL-5
IGROV-1 = test system: IGROV-1
HL-60 = test system: HL-60
MDA-N = test system: MDA-N
LOX IMVI = test system: LOX IMVI
NCI-H226 = test system: NCI-H226
M14 = test system: M14
SNB-19 = test system: SNB-19
HT-29 = test system: HT-29
T47D = test system: T47D
HCT-15 = test system: HCT-15
RXF 393 = test system: RXF 393
RPMI-8226 = test system: RPMI-8226
KM12 = test system: KM12
SW-620 = test system: SW-620
Hs-578T = test system: Hs-578T
MDA-MB-231 = test system: MDA-MB-231
OVCAR-8 = test system: OVCAR-8
SK-OV-3 = test system: SK-OV-3
SN12C = test system: SN12C
U-251 = test system: U-251
SR = test system: SR
HCC 2998 = test system: HCC 2998
Malme-3M = test system: Malme-3M
NCI-H522 = test system: NCI-H522

Measured: GI50

N=C(N)SCCc1ccncc1
inactive: OVCAR-3 > 100 µM | NCI-H23 > 100 µM | NCI-H460 > 100 µM | A498 > 100 µM | TK-10 > 100 µM | BT-549 > 100 µM | OVCAR-5 > 100 µM | MCF7 > 100 µM | MOLT-4 > 100 µM | UO-31 > 100 µM | COLO 205 > 100 µM | SK-MEL-2 > 100 µM | SK-MEL-28 > 100 µM | PC-3 > 100 µM | HOP-92 > 100 µM | CCRF-CEM 65.8 µM | SF-268 > 100 µM | UACC-62 > 100 µM | ACHN > 100 µM | K562 > 100 µM | EKVX > 100 µM | HCT-116 > 100 µM | UACC-257 > 100 µM | SF-295 > 100 µM | 786-0 > 100 µM | NCI/ADR-RES > 100 µM | SF-539 > 100 µM | A549 > 100 µM | OVCAR-4 > 100 µM | SNB-75 > 100 µM | HOP-62 > 100 µM | CAKI-1 > 100 µM | DU-145 > 100 µM | MDA-MB-435 > 100 µM | SK-MEL-5 > 100 µM | IGROV-1 > 100 µM | HL-60 > 100 µM | MDA-N > 100 µM | LOX IMVI > 100 µM | NCI-H226 > 100 µM | M14 > 100 µM | SNB-19 > 100 µM | HT-29 > 100 µM | T47D > 100 µM | RXF 393 > 100 µM | RPMI-8226 > 100 µM | KM12 > 100 µM | SW-620 > 100 µM | Hs-578T > 100 µM | MDA-MB-231 > 100 µM | OVCAR-8 > 100 µM | SK-OV-3 > 100 µM | SN12C > 100 µM | U-251 > 100 µM | SR > 100 µM
> 100 µM: HCT-15

O=C1/C(=C\c2ccc(Br)cc2)CCCc2ccccc21
12.4 µM: HCT-15
inactive: HCC 2998 14.7 µM | OVCAR-3 20.8 µM | NCI-H23 17.1 µM | NCI-H460 17 µM | A498 23.8 µM | TK-10 18.7 µM | BT-549 24 µM | OVCAR-5 38.6 µM | MCF7 19.5 µM | MOLT-4 18.1 µM | UO-31 14.6 µM | COLO 205 17.9 µM | SK-MEL-2 19.1 µM | SK-MEL-28 18.9 µM | PC-3 20.3 µM | HOP-92 19.1 µM | CCRF-CEM 19.7 µM | SF-268 16.9 µM | UACC-62 13.3 µM | ACHN 16.9 µM | K562 41.8 µM | EKVX 17.5 µM | HCT-116 12.4 µM | UACC-257 19.5 µM | SF-295 22 µM | 786-0 14.6 µM | NCI/ADR-RES 13.4 µM | SF-539 15.5 µM | A549 31.6 µM | OVCAR-4 12.3 µM | SNB-75 18.8 µM | HOP-62 46.5 µM | CAKI-1 29.3 µM | DU-145 15.5 µM | MDA-MB-435 19.2 µM | IGROV-1 16.4 µM | HL-60 14.2 µM | MDA-N 17.4 µM | LOX IMVI 16.3 µM | NCI-H226 14.4 µM | M14 29.6 µM | SNB-19 16.6 µM | HT-29 15 µM | T47D 10.5 µM | RXF 393 21 µM | RPMI-8226 17.1 µM | KM12 15.6 µM | SW-620 16.9 µM | Hs-578T 17.3 µM | MDA-MB-231 18.5 µM | OVCAR-8 15 µM | SK-OV-3 35.6 µM | SN12C 16.5 µM | U-251 15 µM | SR 23 µM

COc1ccc(OC)c2sc(N3C(=O)/C(=C/c4ccc(N(C)C)cc4)N=C3c3ccccc3)nc12
59.2 µM: HCT-15
inactive: HCC 2998 > 100 µM | OVCAR-3 58.2 µM | NCI-H460 92.9 µM | A498 87.7 µM | TK-10 > 100 µM | BT-549 97.1 µM | OVCAR-5 > 100 µM | MCF7 22.3 µM | MOLT-4 15.5 µM | UO-31 55 µM | COLO 205 > 100 µM | SK-MEL-2 36.9 µM | SK-MEL-28 > 100 µM | PC-3 33 µM | HOP-92 > 100 µM | CCRF-CEM 6.04 µM | SF-268 > 100 µM | UACC-62 28.3 µM | ACHN 50.5 µM | K562 79.8 µM | EKVX > 100 µM | HCT-116 34.8 µM | UACC-257 > 100 µM | SF-295 > 100 µM | 786-0 92.3 µM | NCI/ADR-RES > 100 µM | SF-539 98.2 µM | A549 83.6 µM | OVCAR-4 > 100 µM | SNB-75 80.5 µM | HOP-62 > 100 µM | CAKI-1 > 100 µM | DU-145 > 100 µM | MDA-MB-435 31.4 µM | SK-MEL-5 39.2 µM | IGROV-1 > 100 µM | HL-60 20.9 µM | MDA-N 22.2 µM | LOX IMVI 41 µM | M14 99.3 µM | SNB-19 > 100 µM | HT-29 61.8 µM | T47D 38.5 µM | RPMI-8226 11 µM | KM12 52 µM | SW-620 49.8 µM | Hs-578T 91 µM | MDA-MB-231 > 100 µM | OVCAR-8 78.5 µM | SK-OV-3 > 100 µM | SN12C 52.5 µM | U-251 44.1 µM | SR 19.6 µM

OCc1ccc2c(c1)CC1(Cc3ccc(/C=N/O)cc3C1)C2 (stereo not drawn)
inactive: HCC 2998 1.97 µM | OVCAR-3 2.74 µM | NCI-H23 3.19 µM | NCI-H460 3.3 µM | A498 27.7 µM | TK-10 13.4 µM | BT-549 10.4 µM | OVCAR-5 23.7 µM | MCF7 2 µM | MOLT-4 4.73 µM | UO-31 7.08 µM | Malme-3M 9.1 µM | COLO 205 3.1 µM | SK-MEL-2 7.26 µM | NCI-H522 2.08 µM | SK-MEL-28 6.82 µM | PC-3 3.74 µM | HOP-92 7.74 µM | CCRF-CEM 1.96 µM | SF-268 13.7 µM | UACC-62 3.24 µM | ACHN 7.08 µM | K562 1.8 µM | EKVX 6.73 µM | HCT-116 3.26 µM | UACC-257 2.19 µM | SF-295 2.43 µM | 786-0 10.4 µM | NCI/ADR-RES 3.32 µM | SF-539 2.72 µM | A549 4.93 µM | OVCAR-4 1.92 µM | SNB-75 2.88 µM | HOP-62 5.45 µM | CAKI-1 7.8 µM | DU-145 5.24 µM | SK-MEL-5 1.34 µM | IGROV-1 2.84 µM | LOX IMVI 2.93 µM | NCI-H226 10 µM | M14 1.99 µM | SNB-19 5.35 µM | HT-29 1.89 µM | T47D 11.3 µM | RPMI-8226 2.25 µM | KM12 1.29 µM | SW-620 1.68 µM | Hs-578T 2.45 µM | MDA-MB-231 6.27 µM | OVCAR-8 4.45 µM | SK-OV-3 6.05 µM | SN12C 2.61 µM | U-251 2.86 µM
1.16 µM: HCT-15
active: MDA-MB-435 0.445 µM | HL-60 0.41 µM | MDA-N 0.328 µM
